{"source": "PubChem BioAssay (NCI)", "experiment_in_all_cases": "growth of human tumour cells (NCI), 384-well format", "key": {"ACHN renal": {"test_system": "ACHN renal"}, "NCI-H322M lung": {"test_system": "NCI-H322M lung"}, "NCI-H460 NSCLC": {"test_system": "NCI-H460 NSCLC"}, "DU-145 prostate": {"test_system": "DU-145 prostate"}, "SK-OV-3 ovarian": {"test_system": "SK-OV-3 ovarian"}, "HT29 colon": {"test_system": "HT29 colon"}, "UACC-257 melanoma": {"test_system": "UACC-257 melanoma"}, "HS 578T breast": {"test_system": "HS 578T breast"}, "A498 renal": {"test_system": "A498 renal"}, "K-562 leukemia": {"test_system": "K-562 leukemia"}, "A549 NSCLC": {"test_system": "A549 NSCLC"}, "NCI-H522 lung": {"test_system": "NCI-H522 lung"}, "SF-268 CNS": {"test_system": "SF-268 CNS"}}, "note": "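Abbreviation: GI50, concentration required for 50% inhibition of growth. TGI: total growth inhibition.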"}
{"smiles": "CC#CC(=O)N1CC[C@@H](n2c(=O)n(-c3ccc(Oc4ccccc4)cc3)c3c(N)ncnc32)C1", "values": [{"measurement": "GI50", "setting": "ACHN renal", "value": 31.6, "unit": "µM"}, {"measurement": "TGI", "setting": "ACHN renal", "value": "> 100", "unit": "µM"}, {"measurement": "GI50", "setting": "NCI-H322M lung", "value": 27.5, "unit": "µM"}, {"measurement": "TGI", "setting": "NCI-H322M lung", "value": "> 100", "unit": "µM"}, {"measurement": "GI50", "setting": "NCI-H460 NSCLC", "value": 17.1, "unit": "µM"}, {"measurement": "TGI", "setting": "NCI-H460 NSCLC", "value": 33.4, "unit": "µM"}, {"measurement": "GI50", "setting": "DU-145 prostate", "value": 25.5, "unit": "µM"}, {"measurement": "TGI", "setting": "DU-145 prostate", "value": "> 70.2", "unit": "µM"}, {"measurement": "GI50", "setting": "SK-OV-3 ovarian", "value": 33.5, "unit": "µM"}, {"measurement": "TGI", "setting": "SK-OV-3 ovarian", "value": "> 87.1", "unit": "µM"}, {"measurement": "GI50", "setting": "HT29 colon", "value": 32.2, "unit": "µM"}, {"measurement": "TGI", "setting": "HT29 colon", "value": "> 100", "unit": "µM"}, {"measurement": "GI50", "setting": "UACC-257 melanoma", "value": 19.7, "unit": "µM"}, {"measurement": "TGI", "setting": "UACC-257 melanoma", "value": 67.2, "unit": "µM"}, {"measurement": "GI50", "setting": "HS 578T breast", "value": 22.1, "unit": "µM"}, {"measurement": "TGI", "setting": "HS 578T breast", "value": 55.9, "unit": "µM"}, {"measurement": "GI50", "setting": "A498 renal", "value": 21.7, "unit": "µM"}, {"measurement": "TGI", "setting": "A498 renal", "value": "> 74.2", "unit": "µM"}, {"measurement": "GI50", "setting": "K-562 leukemia", "value": 12.5, "unit": "µM"}, {"measurement": "TGI", "setting": "K-562 leukemia", "value": 38.4, "unit": "µM"}, {"measurement": "GI50", "setting": "A549 NSCLC", "value": 34.8, "unit": "µM"}, {"measurement": "TGI", "setting": "A549 NSCLC", "value": "> 100", "unit": "µM"}, {"measurement": "GI50", "setting": "NCI-H522 lung", "value": 5.88, "unit": "µM"}, {"measurement": "TGI", "setting": "NCI-H522 lung", "value": 27.9, "unit": "µM"}, {"measurement": "GI50", "setting": "SF-268 CNS", "value": 25.1, "unit": "µM"}, {"measurement": "TGI", "setting": "SF-268 CNS", "value": "> 65", "unit": "µM"}]}
